Data reported in patent US7186879B2, “Screening systems and methods for identifying modulators of xenobiotic metabolism” (Baylor College of Medicine, priority 2001, dated 2007).
“Also recorded” adds a separate entry of the source.

How the values were obtained:
CYP2B10 [1] = experiment: Northern blot of CYP2B10 mRNA in liver of wild-type and CAR knockout mice
Procedure: (§1) At least three mice between about 8–10 weeks old were used for each treatment. Mice were pretreated by intraperitoneal injection with corn oil, PB (100 mg/kg, Sigma), or TCBOPOP (3 mg/kg) for the indicated time. For a three day PB treatment, mice were injected intraperitoneally three times with PB, at one injection per day.
Approximately 20 μg of total RNA from individual mouse livers was subjected to Northern blot analysis (FIG. 1C). A mouse CAR cDNA probe was used to reveal the absence of CAR transcripts in the CAR null mice. Probes for CYP2B10 were prepared by RT-PCR with mouse liver total RNA using Superscript One-step RT-PCR System (Life Technologies).

human CAR = molecular target: T1, human CAR (Homo sapiens, UniProt Q14994); experiment: CYP2B10 mRNA induction in humanized CAR mice lacking murine CAR; settings: mice expressing only human CAR in liver, 24 hours
T1 sequence (Q14994 1-348 isoform Q14994-2): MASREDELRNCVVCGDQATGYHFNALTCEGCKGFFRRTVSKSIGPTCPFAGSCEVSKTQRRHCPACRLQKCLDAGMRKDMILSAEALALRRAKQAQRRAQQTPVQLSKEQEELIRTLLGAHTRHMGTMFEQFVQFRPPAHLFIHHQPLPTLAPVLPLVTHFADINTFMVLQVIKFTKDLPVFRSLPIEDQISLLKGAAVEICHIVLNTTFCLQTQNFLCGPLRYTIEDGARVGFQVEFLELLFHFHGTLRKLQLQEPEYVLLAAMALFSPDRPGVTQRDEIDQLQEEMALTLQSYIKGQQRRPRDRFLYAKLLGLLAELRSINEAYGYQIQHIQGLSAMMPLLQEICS
Procedure: Total RNA was prepared from the livers of the individual mice, and CYP2B10 mRNA expression was assessed by Northern blotting.
Mice heterozygous for the murine CAR gene mutation and lacking the human CAR transgene express only murine CAR. […] Mice homozygous for the murine CAR gene mutation and carrying the human CAR transgene express only human CAR in the liver.

CYP3A11 = experiment: Northern blot of CYP3A11 mRNA in liver; settings: for induction of CYP311: CAR −/− mice; for induction of murine CYP3A11 mRNA: wild-type mice
Procedure: as §1

CYP2B10 [2] = experiment: In situ hybridization of CYP2B10 in small intestine; settings: for CYP2B10 expression in the small intestine: 3 days treatment; for number of grains per cell, with or without treatment: CAR −/− animals; for number of grains per cell, with or without treatment / number of grains per cell, treated versus untreated: small intestine
hepatic GSH = experiment: Hepatic GSH content (non-protein thiol); format: in vivo, mouse; settings: for hepatic GSH levels versus vehicle CAR (+/+) and pretreated CAR (−/−) animals: pretreated wild-type animals, two hours after APAP; for decrease in hepatic GSH: pretreated wild-type mice, two hours after APAP 250 mg/kg
Procedure: CAR (+/+) or CAR (−/−) animals pretreated with phenobarbital (PB), TCPOBOP (TC), or vehicle alone were administered a 250 mg/kg dose of APAP by intraperitoneal injection (n=5–7 per treatment group) (FIG. 11A). Serum was collected and alanine aminotransferase (ALT) levels were measured after 24 hours. Liver sections from different treatments were examined by histological staining (FIG. 11B). Liver samples from all treated animals were analyzed but only representative histology is presented. […] CAR (+/+) or CAR (−/−) animals were pretreated with PB, TCPOBOP (TC), or vehicle alone for three days (FIG. 11C). […] Liver samples treated as indicated were collected two hours after APAP and GSH levels were measured (n=5–7) (FIG. 11D).
FIG. 15A is a picture of the histological staining of liver sections after two hours of 500 mg/kg APAP treatment. Liver sections from animals injected with 500 mg/kg APAP for 0 or 2 hours were stained with hematoxylin and eosin. Arrows indicate initial stages of necrosis surrounding central veins. The same liver samples were collected and GSH levels were measured at 0 and 2 hours as indicated. FIG. 15B is a graph of these GSH levels.
For histologic examination of the treated mice, the left lobe of the livers was removed and immediately fixed in 4% formaldehyde-PBS solution, embedded in paraffin, sectioned at 5 μm, and stained with hematoxylin and eosin. Samples were examined under a light microscope. For RNA studies, total RNA was extracted using TRIzol Reagent (Invitrogen Life Technologies, Carlsbad, Calif.) according to the manufacture's instruction. Equivalent amount of RNA from 3–5 mice were pooled and 10 μg of each sample was subjected to northern blot analysis. […] Preparation of probes for CYP2B10 and CYP3A11 were described as previously (Wei et al., Nature 407:920–923, 2000 and Zelko et al., Mol Cell Biol 21:2838–2846, 2001). PCR primers used were: CYP1A2: 5′-[…]-3′ (SEQ ID NO: 19) and 5′-[…]-3′ (SEQ ID NO: 20), CYP2E1: 5′-[…]-3′ (SEQ ID NO: 21) and 5′-[…]-3′ (SEQ ID NO: 22), GSTPi: 5′-[…]-3′ (SEQ ID NO: 23) and 5′-[…]-3′ (SEQ ID NO: 24). Hepatic non-protein thiol was measured as an indication of hepatic GSH content. Mice were sacrificed two hours after intraperitoneal injection with APAP. Livers were removed and immediately homogenized in four volumes of 5% trichloroacetic acid and then centrifuged at 1,600×g for 15 minutes. Supernatant (0.5 ml) was mixed with 1.5 ml 0.1 mM Ellman's reagent [5,5′-dithio-bis(2-nitrobenzoic acid)] (Sigma, St Louis, Mo.) and allowed to stand at room temperature for 15 minutes. Absorbance was read at 412 nm using GSH solutions as quantitative standards.

hepatocytes = experiment: Hepatocyte proliferation (BrdU incorporation); format: in vivo, mouse; settings: wild-type animals
Procedure: FIG. 3B is a set of pictures of PB-treated, TCPOBOP-treated, or control mice that were treated with BrdU for two hours before their liver tissues were harvested.
To determine the proliferation of hepatocytes following PB or TCPOBOP treatment, mice pretreated with corn oil, PB, or TCPOBOP received a single intraperitoneal dose of BrdU/FdU (2 ml/100 g, Amersham). Mice were sacrificed approximately 2 hours after BrdU administration. BrdU incorporation was determined using a mouse anti-BrdU monoclonal antibody (DAKO Corporation) and Vectastain ABC Kit (Vector Laboratories Inc.) (FIG. 3B), using standard procedures.

Row | SMILES | induction of expression of CYP2B10 mRNA (CYP2B10 [1]; CAR knockout animals) | induction of expression of CYP2B10 mRNA (CYP2B10 [1]; wild-type male or female mice) | induction of CYP2B10 mRNA (human CAR) | induction of CYP311 (CYP3A11) | induction of murine CYP3A11 mRNA (CYP3A11) | CYP2B10 expression in the small intestine (CYP2B10 [2]; CAR knockout mice) | number of grains per cell, with or without treatment (CYP2B10 [2]) | CYP2B10 expression in the small intestine (CYP2B10 [2]; wild-type mice) | number of grains per cell, treated versus untreated (CYP2B10 [2]; wild-type mice) | hepatic GSH levels versus vehicle CAR (+/+) and pretreated CAR (−/−) animals (hepatic GSH) | decrease in hepatic GSH (hepatic GSH) | BrdU-positive hepatocytes (hepatocytes)
1 | Clc1cnc(Oc2ccc(Oc3ncc(Cl)cc3Cl)cc2)c(Cl)c1 [TCPOBOP, 1,4-bis[2-(3,5-dichloropyridyloxy)]benzene] | absent | robust induction | did not respond; also recorded: not by TCPOBOP | negligible level of induction | substantial induction | not detected | not significantly different | induced CYP2B10 expression | approximately two-fold higher | significantly different | approximately 50% | presence of BrdU-positive hepatocytes
2 | CCC1(c2ccccc2)C(=O)NC(=O)NC1=O [PB, phenobarbital] | absent | robust induction | induction of CYP2B10 mRNA; also recorded: induces a CAR target gene | negligible level of induction | substantial induction | not detected | not significantly different | induced CYP2B10 expression | approximately two-fold higher | significantly different | approximately 50% | presence of BrdU-positive hepatocytes
